Values quoted from earlier work in patent publication US7026316B2, “Dipeptidyl peptidase inhibitors for the treatment or prevention of diabetes” (Merck & Co., Inc., priority 2001, dated 2006).

Experiments:
[1] = system: mouse; details: cyclophosphamide-induced neutropenia
[2] = system: rats; details: survival doubled from day 7 to day 14
[3] = molecular target: DP-IV (Homo sapiens, UniProt P27487)
Sequence of DP-IV (P27487 whole entry): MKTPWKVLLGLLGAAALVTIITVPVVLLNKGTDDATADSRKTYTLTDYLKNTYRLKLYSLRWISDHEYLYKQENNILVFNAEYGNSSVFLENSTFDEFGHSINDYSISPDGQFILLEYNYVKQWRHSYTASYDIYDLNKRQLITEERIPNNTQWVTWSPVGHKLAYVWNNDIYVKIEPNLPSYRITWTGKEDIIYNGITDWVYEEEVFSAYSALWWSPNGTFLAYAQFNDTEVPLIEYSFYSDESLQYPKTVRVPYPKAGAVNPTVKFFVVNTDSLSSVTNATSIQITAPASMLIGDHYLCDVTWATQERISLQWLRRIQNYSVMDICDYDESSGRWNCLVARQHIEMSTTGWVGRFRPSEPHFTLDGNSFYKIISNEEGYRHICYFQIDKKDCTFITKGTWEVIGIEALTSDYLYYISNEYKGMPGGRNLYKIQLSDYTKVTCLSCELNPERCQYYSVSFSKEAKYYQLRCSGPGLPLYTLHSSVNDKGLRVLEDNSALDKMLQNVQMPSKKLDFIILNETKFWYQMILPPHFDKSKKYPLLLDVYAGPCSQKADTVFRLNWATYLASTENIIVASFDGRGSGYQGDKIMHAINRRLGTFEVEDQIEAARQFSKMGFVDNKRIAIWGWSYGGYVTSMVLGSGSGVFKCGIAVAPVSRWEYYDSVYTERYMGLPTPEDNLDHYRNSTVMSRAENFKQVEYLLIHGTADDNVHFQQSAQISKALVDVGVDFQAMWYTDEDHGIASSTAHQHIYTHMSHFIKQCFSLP

**Q.** For `CC(C)[C@H](N)C(=O)N1CCC[C@H]1B(O)O` [Val-Boro-Pro], which hematopoiesis [1] is on record?
**A.** Its hematopoiesis is “stimulated hematopoiesis”.

**Q.** With `CC(C)N1CCC(c2ccccc2)(c2ccccc2)CC1` [Prodipine, Pro-Pro-diphenyl-phosphonate] as the molecule, how does the cardiac allograft survival [2] read?
**A.** The cardiac allograft survival was 14 day.

**Q.** Which “degradation of GRH in plasma to GRH[3-44]” value [3] does the source give for `CC[C@H](C)[C@H](N)C(=O)N1CCC[C@H]1C(=O)N[C@H](C(=O)O)[C@@H](C)CC` [diprotin A] here?
**A.** The value was “prevented”.
